{"source": "paper PMC4882497", "about": "(British Journal of Pharmacology, 2016)", "key": {"[1]": {"molecular_target": "T1, hY5 (Homo sapiens, UniProt Q15761)", "T1 construct": "expressed in transfected cells", "T1 sequence (Q15761 1-445)": "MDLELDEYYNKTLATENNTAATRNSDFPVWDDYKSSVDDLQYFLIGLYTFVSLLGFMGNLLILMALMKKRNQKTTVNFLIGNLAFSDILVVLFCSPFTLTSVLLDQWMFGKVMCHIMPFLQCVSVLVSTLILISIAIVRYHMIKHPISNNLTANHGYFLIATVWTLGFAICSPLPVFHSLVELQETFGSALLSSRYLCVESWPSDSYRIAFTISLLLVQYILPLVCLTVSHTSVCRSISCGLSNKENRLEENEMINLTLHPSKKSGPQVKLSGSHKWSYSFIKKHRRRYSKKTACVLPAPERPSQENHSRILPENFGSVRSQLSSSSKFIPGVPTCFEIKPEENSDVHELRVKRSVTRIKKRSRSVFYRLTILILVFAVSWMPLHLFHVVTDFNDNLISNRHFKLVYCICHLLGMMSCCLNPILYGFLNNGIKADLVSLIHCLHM", "experiment": "Inositol phosphate accumulation, COS-7 cells expressing hY5 and chimeric Gi/q protein", "format": "cell-based", "conditions": "agonist, inositol phosphate turnover, COS7 cells; pEC50 ± SEM, n ≥ 2", "method": "(§1) Agonist activity at Y receptors was assessed by measuring inositol phosphate accumulation in COS‐7 cells, as described previously (Hofmann et al., 2013). […] Stably transfected COS‐7‐hYR‐GαΔ6qi4myr cells were cultivated in DMEM with 4.5 g·L^−1 glucose and L‐glutamine supplemented with 10% (v/v) heat‐inactivated FCS, 100 units mL^−1 penicillin, 100 μg mL^−1 streptomycin, 1.5 mg mL^−1 G418‐sulfate and 146 μg mL^−1 hygromycin B in a humidified atmosphere at 37°C and 5% CO2. COS 7 cells were a gift from Prof. Dr. Torsten Schöneberg (Leipzig University). Stable cell lines were prepared as described in Mäde et al., 2014. Cells were grown in 48‐well plates (90 000 cells in 500 μL per well) for 24 h. […] Cells were lysed applying 0.1 M sodium hydroxide for 5 min at room temperature followed by neutralization with 0.2 M formic acid. […] Eluates were diluted with scintillation cocktail Ultima Gold (Perkin Elmer) and measured by a scintillation counter (Tri‐Carb 2910 TR from PerkinElmer). […] For each compound, global mean EC50 and pEC50 ± SEM (n ≥ 2) were calculated from the entire normalized concentration‐response curves by nonlinear regression using GraphPad Prism 5.0. […]\n(§2) Activity at the human receptors, hY1, hY2, hY4 and hY5, was measured by accumulation of IP3, after channeling cAMP inhibition to phospholipase C activity, in COS7 cells."}, "[2]": {"molecular_target": "T2, hY1 (Homo sapiens, UniProt P25929)", "T2 construct": "expressed in transfected cells", "T2 sequence (P25929 1-384)": "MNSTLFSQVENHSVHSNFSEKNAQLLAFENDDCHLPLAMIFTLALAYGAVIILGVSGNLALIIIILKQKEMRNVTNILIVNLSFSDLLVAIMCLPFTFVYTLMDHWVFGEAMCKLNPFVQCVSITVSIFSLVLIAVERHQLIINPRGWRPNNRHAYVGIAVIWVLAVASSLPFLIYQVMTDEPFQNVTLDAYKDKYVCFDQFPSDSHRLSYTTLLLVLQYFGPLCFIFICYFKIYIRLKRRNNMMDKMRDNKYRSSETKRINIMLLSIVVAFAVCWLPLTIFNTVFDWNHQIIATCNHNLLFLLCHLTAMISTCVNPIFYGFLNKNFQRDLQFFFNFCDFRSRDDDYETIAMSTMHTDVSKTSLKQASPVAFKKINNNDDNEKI", "experiment": "Inositol phosphate accumulation, COS-7 cells expressing hY1 and chimeric Gi/q protein", "format": "cell-based", "conditions": "agonist, inositol phosphate turnover, COS7 cells, 1 h stimulation, duplicate, at least two experiments", "method": "as §1, §2"}, "[3]": {"molecular_target": "T3, hY2 (Homo sapiens, UniProt P49146)", "T3 construct": "expressed in transfected cells", "T3 sequence (P49146 1-381)": "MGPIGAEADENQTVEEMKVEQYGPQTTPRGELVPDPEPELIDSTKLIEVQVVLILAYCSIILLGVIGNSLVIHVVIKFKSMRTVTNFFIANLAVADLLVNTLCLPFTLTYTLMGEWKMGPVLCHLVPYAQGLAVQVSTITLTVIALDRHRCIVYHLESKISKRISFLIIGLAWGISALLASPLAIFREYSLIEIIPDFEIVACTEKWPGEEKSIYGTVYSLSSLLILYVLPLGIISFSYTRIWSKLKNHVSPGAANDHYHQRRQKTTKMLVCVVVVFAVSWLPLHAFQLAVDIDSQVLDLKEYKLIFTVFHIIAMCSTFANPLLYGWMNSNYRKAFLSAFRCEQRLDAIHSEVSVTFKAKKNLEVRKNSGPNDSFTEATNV", "experiment": "Inositol phosphate accumulation, COS-7 cells expressing hY2 and chimeric Gi/q protein", "format": "cell-based", "conditions": "agonist, inositol phosphate turnover, COS7 cells, 1 h stimulation, duplicate, at least two experiments", "method": "as §1, §2"}, "[4]": {"molecular_target": "T4, hY4 (Homo sapiens, UniProt P50391)", "T4 construct": "expressed in transfected cells", "T4 sequence (P50391 whole entry)": "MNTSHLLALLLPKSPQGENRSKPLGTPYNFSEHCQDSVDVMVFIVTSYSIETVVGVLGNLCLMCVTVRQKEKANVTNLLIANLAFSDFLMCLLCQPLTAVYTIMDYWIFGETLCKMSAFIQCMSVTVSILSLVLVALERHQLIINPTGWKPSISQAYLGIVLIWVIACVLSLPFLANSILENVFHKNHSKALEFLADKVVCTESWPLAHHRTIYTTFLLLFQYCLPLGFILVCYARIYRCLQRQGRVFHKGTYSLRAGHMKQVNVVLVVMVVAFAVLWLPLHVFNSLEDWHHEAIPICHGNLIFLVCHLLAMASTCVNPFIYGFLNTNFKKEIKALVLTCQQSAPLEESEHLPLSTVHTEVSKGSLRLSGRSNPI", "experiment": "Inositol phosphate accumulation, COS-7 cells expressing hY4 and chimeric Gi/q protein", "format": "cell-based", "conditions": "agonist, inositol phosphate turnover, COS7 cells; pEC50 ± SEM, n ≥ 2", "method": "as §1, §2"}, "[5]": {"system": "orexin neurons in the lateral hypothalamus", "experiment": "c-Fos/orexin dual-labelling immunohistochemistry in lateral hypothalamus after fear extinction, WT mice", "format": "in vivo, mouse", "conditions": "i.p. 60 min before fear extinction, fasted 16 h, brains removed 90 min after testing, n = 7 per group", "method": "A separate group of WT and Y4KO mice were fasted overnight (16 h), injected i.p. with [K^30(PEG2)]hPP2‐36 or saline and subjected to extinction training 60 min later. Using a cryostat 40 μm coronal, free‐floating sections were cut for subsequent immunohistochemistry.\nImmunohistochemical analysis was performed on free‐floating, PFA‐fixed, 40 μm thick coronal sections using indirect peroxidase labelling, as described previously (Tasan et al., 2011). The following antisera were used: polyclonal rabbit anti‐c‐Fos (1:20 000 PC38, Calbiochem) and polyclonal rabbit anti‐pan‐orexin (1:1000, Abcam ab6214, Lot:GR63996‐1). In brief, coronal sections were incubated free‐floating in 10% normal goat serum (Biomedica, Vienna, Austria) in Tris–HCl buffered saline (TBS; 50 mM, pH 7.2) for 90 min, followed by incubation with primary antiserum. […]\nThe number of c‐Fos positive cells was obtained bilaterally from six matched sections per animal showing the lateral hypothalamus, at a magnification of 400×, in multiple separate fields and mean values were calculated for each mouse. Results are presented as number of immunoreactivity positive cells per section and expressed as mean ± SEM. […]"}, "[6]": {"system": "WT (C57Bl/6NCrl) mice", "experiment": "Cued fear extinction after peripheral injection, WT mice", "format": "in vivo, mouse", "method": "(§3) Naïve WT (C57Bl/6NCrl) or Y4KO mice were used for fear conditioning experiments. Fear conditioning experiments were conducted during the light phase of the light/dark cycle in sound proof chambers (TSE Systems, Bad Homburg, Germany) by repetitive exposure of the mice to an auditory stimulus co‐terminating with a foot shock, as described in detail previously (Verma et al., 2012). Fear conditioning and context testing were performed in context A consisting of a transparent acrylic mouse conditioning chamber with a metal grid floor. The whole set‐up was enclosed by a sound attenuating chamber. Illumination was 80 lux, and chambers were cleaned with 70% ethanol. Fear recall as well as fear extinction and extinction recall was performed in a different context consisting of a dimly illuminated (10 lux) chamber with black, smooth walls and the floor cleaned with 1% acetic acid (context B).\n(§4) On day 1 (context A), mice were subjected to a differential fear conditioning paradigm in which one auditory stimulus served as a CS because it was explicitly paired (CS+, 30 s white noise, 80 dB) with the US, whereas the second auditory stimulus was not paired (CS−, 30 s, 3.5 kHz, 80 dB). All animals received five CS− and five CS+ in an alternating order, starting with a CS+. The US co‐terminating with each CS+ consisted of a foot shock. […] On days 2 and 3, mice were tested for their context (context A for 15 min) and CS‐related fear memory (context B) respectively.\n(§5) Fear conditioning was performed in WT (C57Bl6/NCrl) and Y4KO mice on day 1 (context A) as described in the previous paragraph. To avoid interference with postprandial released PP, mice were fasted overnight (16 h) before injection of the drug followed by fear extinction training. Water was freely available during the fasting period. Based on our previous results, a 16 h fasting period was required to reach our experimental aim (Verma et al., 2016). A control experiment was performed without food restriction (non‐fasting). [K^30(PEG2)]hPP2‐36 (1 mg·kg^−1) or saline was injected i.p. 60 min before behavioural testing, as indicated in the timeline of the respective experiments. For extinction experiments, mice were divided into two groups, receiving an i.p. injection of either the long‐acting Y4 receptor agonist [K^30(PEG2)]hPP2‐36 (1 mg·kg^−1) or saline in controls followed after 60 min by extinction training (extinction 1; 5 CS− and 25 CS+, context B). Mice were then tested on day 3 for extinction recall under drug‐free conditions by exposure to five CS+ (context B). To exclude any bias of group selection, another extinction session was performed on day 4 (extinction 2; 25 CS+, context B) followed by extinction recall on day 5 (five CS+; context B), both under drug‐free conditions. Spontaneous recovery (day 12) and renewal (day 13) were tested by exposing the mice to five CS+ in contexts B and A respectively."}, "[7]": {"system": "Y4KO mice", "experiment": "Cued fear extinction after peripheral injection, Y4KO mice", "format": "in vivo, mouse", "conditions": "1 mg/kg i.p. 60 min before extinction, fasted 16 h, vs saline, n = 10 per group", "method": "as §3\nOn day 1 (context A), mice were subjected to a differential fear conditioning paradigm in which one auditory stimulus served as a CS because it was explicitly paired (CS+, 30 s white noise, 80 dB) with the US, whereas the second auditory stimulus was not paired (CS−, 30 s, 3.5 kHz, 80 dB). All animals received five CS− and five CS+ in an alternating order, starting with a CS+. The US co‐terminating with each CS+ consisted of a foot shock. […]"}, "[8]": {"system": "WT mice", "experiment": "Fear acquisition and consolidation after peripheral injection", "format": "in vivo, mouse", "conditions": "vs saline, n = 6 per group", "method": "as §3, §4\nas §5, with “Spontaneous recovery (day 12) and renewal (day 13) were tested by exposing the mice to five CS+ in contexts B and A respectively.” left out"}, "[9]": {"system": "male WT mice", "experiment": "Motor activity over 24 h in a novel cage", "format": "in vivo, mouse", "conditions": "1 mg/kg i.p., 24 h in novel cage, vs saline, n = 8 vs 7", "method": "Male WT mice were injected i.p. with either the long‐acting Y4 receptor agonist [K^30(PEG2)]hPP2‐36 (1mg kg^−1) or saline. Activity measurements were performed for 24 h in a novel cage. Mice were single‐housed in standard cages with food and water ad libitum. Movements of the mice were detected by an infrared sensor throughout light and dark phase (TSE LabMaster InfraMot, Bad Homburg, Germany).\nTo exclude non‐specific effects of [K^30(PEG2)]hPP2‐36 on motor activity that may compromise freezing detection during extinction training, we first injected male WT mice i.p. with [K^30(PEG2)]hPP2‐36 or saline and subsequently observed the activity of the mice for 24 h in a novel cage (Supporting Information Figure S4)."}, "[10]": {"conditions": "i.p. immediately after fear acquisition"}}}
{"substance": "[K^30(PEG2)]hPP2‐36 (H-PLEPVYPGDNATPEQMAQYAADLRRYINK(MeO‑PEG 2 kDa)LTRPRY-NH2) [lysine 30 carries 2000 Da MeO-PEG]", "values": [{"measurement": "hY5 pEC50", "setting": "[1]", "value": "6.4 ± 0.1"}, {"measurement": "EC50", "setting": "[2]", "value": "> 1000", "unit": "nM"}, {"measurement": "EC50", "setting": "[3]", "value": "> 1000", "unit": "nM"}, {"measurement": "hY4 pEC50", "setting": "[4]", "value": "8.0 ± 0.2"}]}
{"substance": "[K^30(PEG2)]hPP2‐36", "values": [{"measurement": "percentage of cFos-positive orexin neurons in the lateral hypothalamus", "setting": "[5]", "value": "specifically reduced"}, {"measurement": "cued fear extinction learning (freezing to CS)", "setting": "[6]; 1 mg/kg i.p. 60 min before extinction training, fasted 16 h, male WT mice, vs saline", "value": "significantly facilitated extinction learning"}, {"measurement": "freezing at CS13 during extinction", "setting": "[6]; 1 mg/kg i.p. 60 min before extinction, fasted 16 h, WT mice, n = 10 per group", "value": "reduced freezing at CS13"}, {"measurement": "freezing during extinction recall", "setting": "[6]; 1 mg/kg i.p. before extinction 1, fasted 16 h, recall 24 h later drug-free and non-fasting, male WT mice, vs saline", "value": "reduction of freezing during extinction recall"}, {"measurement": "freezing during spontaneous recovery", "setting": "[6]; 1 mg/kg i.p. before extinction training 1 (day 2), fasted 16 h, tested day 12, context B, male WT mice, n = 7 per group", "value": "reduced freezing"}, {"measurement": "freezing during renewal", "setting": "[6]; 1 mg/kg i.p. before extinction training 1 (day 2), fasted 16 h, tested day 13, context A, male WT mice, n = 7 per group", "value": "reduced freezing"}, {"measurement": "cued fear extinction learning, non-fasted", "setting": "[6]; i.p. 60 min before extinction training, non‐fasted WT mice, vs saline, n = 6 per group", "value": "did not facilitate extinction learning"}, {"measurement": "cued fear extinction (freezing to CS)", "setting": "[7]", "value": "did not respond"}, {"measurement": "context fear after injection before fear acquisition", "setting": "[8]; i.p. 60 min before fear acquisition, 16 h fasting, tested 24 h later", "value": "did not alter"}, {"measurement": "CS-induced fear after injection before fear acquisition", "setting": "[8]; i.p. 60 min before fear acquisition, 16 h fasting, tested 48 h later", "value": "did not alter"}, {"measurement": "CS-induced freezing after injection immediately after fear acquisition (consolidation)", "setting": "[8]; [10]", "value": "did also not change"}, {"measurement": "context fear after injection immediately after fear acquisition (consolidation)", "setting": "[8]; [10]", "value": "did also not change"}, {"measurement": "general motor activity", "setting": "[9]", "value": "did not influence general motor activity"}]}
